Data on 30 molecules can be found in ChEMBL document CHEMBL3396988, “Structure-based design of inhibitors of coagulation factor XIa with novel P1 moieties” (Bioorg Med Chem Lett, 2015).

A short description of data set [1]: Oral bioavailability in dog at 0.5 mg/kg administered in cassette format. Type of data set: ADME, organism-based, Canis lupus familiaris. The following applies: in vivo.
Data set [2] in a line: Permeability of the compound at pH 7.4 by PAMPA method. Particulars: read-out: permeability. Format: ADME.
Data set [3] in a line: Volume of distribution at steady state in dog at 0.5 mg/kg, po or 0.4 mg/kg, iv administered in cassette format. The following applies: in vivo, read-out: Vdss. Format: ADME, organism-based, Canis lupus familiaris.
Data set [4] can be described thus: Half life in dog at 0.5 mg/kg, po or 0.4 mg/kg, iv administered in cassette format. Format: ADME, organism-based, Canis lupus familiaris. Particulars: in vivo.
Data set [5] addresses Trypsin (Homo sapiens, UniProt P07477+P07478+P35030). Put plainly: Inhibition of human trypsin at 25 degC. Format: protein assay.
Data set [6] has as its target Coagulation factor XI (Homo sapiens, UniProt P03951). As to the kind of experiment: Inhibition of human coagulation factor 11a at 25 degC.
Data set [7] is described as follows: Clearance in dog at 0.5 mg/kg, po or 0.4 mg/kg, iv administered in cassette format. Format: ADME, organism-based, Canis lupus familiaris. Particulars: in vivo.
Data set [8] in a line: Half life in human liver microsomes. Type of data set: ADME.
The test system of data set [9] is Plasma. As to the kind of experiment: Anticoagulant activity in human plasma assessed as compound level causing 1.5 times increase in activated partial […] time. Type of data set: functional.

Coagulation factor XI, sequence (P03951 19-387 limits assumed): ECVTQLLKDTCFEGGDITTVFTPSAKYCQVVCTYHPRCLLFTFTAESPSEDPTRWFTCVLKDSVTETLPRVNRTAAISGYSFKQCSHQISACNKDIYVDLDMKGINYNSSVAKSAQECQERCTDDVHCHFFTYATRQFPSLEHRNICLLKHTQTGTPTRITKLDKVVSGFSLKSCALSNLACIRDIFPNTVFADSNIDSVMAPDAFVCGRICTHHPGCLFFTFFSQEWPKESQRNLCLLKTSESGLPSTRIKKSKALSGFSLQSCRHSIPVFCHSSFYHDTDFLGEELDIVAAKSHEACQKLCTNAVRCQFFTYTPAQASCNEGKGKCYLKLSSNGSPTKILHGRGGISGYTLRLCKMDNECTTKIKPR
Coagulation factor XI, sequence (P03951 388-625 limits assumed): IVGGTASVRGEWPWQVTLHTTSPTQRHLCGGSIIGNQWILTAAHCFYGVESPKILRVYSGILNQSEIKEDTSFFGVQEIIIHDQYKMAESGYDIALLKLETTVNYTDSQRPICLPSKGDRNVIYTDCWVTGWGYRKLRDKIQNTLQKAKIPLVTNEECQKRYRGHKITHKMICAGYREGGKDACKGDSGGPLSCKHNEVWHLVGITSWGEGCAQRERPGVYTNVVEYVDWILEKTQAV

By bioavailability is commonly meant dose-corrected exposure relative to a reference, in per cent. A low value points to poor availability. One may read the half-life as the time in which the quantity being followed falls by half. High values mean slow decline, low ones rapid decline. The Ki is a dissociation constant, usually derived from enzyme kinetics or from competition with a known ligand. In turn, `Cc1ccc(C(=O)N[C@@H](Cc2ccccc2)c2nc(-c3ccc4c(N)n[nH]c4c3)c(Cl)[nH]2)c(F)c1` came in with a bioavailability in [1] of 30%. The Papp in [2] came to 54.7 ×10⁻⁶ cm/s. For the same molecule, the Vd in [3] was 1.9 L/kg. This molecule showed a half-life in [4] of 1.8 h. Besides, the Ki in data set [5] is above 5000 nM; in data set [6] it was 200 nM. The clearance in [7] turned out to be 9 mL/min/kg.
For `Nc1n[nH]c2cc(-c3nc([C@H](Cc4ccccc4)NC(=O)NCc4cccc(Cl)c4F)[nH]c3Cl)ccc12`, the Ki in data set [6] was found to be 57 nM. This lies in the double-digit nanomolar range.
On the same count and under the same terms, the value for `Nc1n[nH]c2cc(-c3nc([C@H](Cc4ccccc4)NC(=O)NCc4cccc(Cl)c4)[nH]c3Cl)ccc12` was 54 nM; that for `Nc1n[nH]c2cc(-c3nc([C@H](Cc4ccccc4)NC(=O)NCc4cc(Cl)ccc4F)[nH]c3Cl)ccc12` was 31 nM.
On the same count and under the same terms, the same measure for `Cc1ccc(Cl)cc1CNC(=O)N[C@@H](Cc1ccccc1)c1nc(-c2ccc3c(N)n[nH]c3c2)c(Cl)[nH]1`: 53 nM.
For `NCC12CCC(C(=O)N[C@@H](Cc3ccccc3)c3nc(-c4ccc5c(N)n[nH]c5c4)c(Cl)[nH]3)(CC1)CC2`, the Ki in data set [5] stood at 1040 nM; in [6], 1.49 nM.
Take `Nc1n[nH]c2cc(-c3nc([C@H](Cc4ccccc4)NC(=O)NCc4cc(Cl)ccc4-n4cnnn4)[nH]c3Cl)ccc12`: the bioavailability in [1] came out at 0%. In addition, the Vd in data set [3] was found to be 1.4 L/kg. For the same molecule, the half-life in [4] was 2.1 h; in [8] it was below 1 min. For the same molecule, in [6], the Ki was determined as 1.5 nM. The Activity in [9] stood at 1.8 µM. The molecule also returned a clearance in [7] of 31.2 mL/min/kg.
In data set [1], `C[C@H]1CC[C@H](C(=O)N[C@@H](Cc2ccccc2)c2nc(-c3ccc4c(N)n[nH]c4c3)c(Cl)[nH]2)CC1` yielded a bioavailability below 1%. The Papp in data set [2] amounted to 0.46 ×10⁻⁶ cm/s. Also, the Vd in [3] came out at 0.9 L/kg. This molecule also showed a half-life in [4] of 1.5 h. For the same molecule, the Ki was above 6000 nM in data set [5] and 68 nM in [6]. The molecule further gave a clearance in data set [7] of 15.4 mL/min/kg.
Turning to `COc1ccc(Cl)cc1CNC(=O)N[C@@H](Cc1ccccc1)c1nc(-c2ccc3c(N)n[nH]c3c2)c(Cl)[nH]1`, the Ki in data set [6] was 75 nM. In other words, the double-digit nanomolar range.
For the molecule `Nc1n[nH]c2cc(-c3nc([C@H](Cc4ccccc4)NC(=O)c4ccc5c(N)noc5c4)[nH]c3Cl)ccc12`, the Ki is above 5000 nM in [5] and 125 nM in data set [6].
For `NCc1ccc(C(=O)N[C@@H](Cc2ccccc2)c2nc(-c3ccc4c(N)n[nH]c4c3)c(Cl)[nH]2)c(F)c1`, in that order: 58 nM and 1.03 nM.
Taken in the same sequence, the figures for `Nc1n[nH]c2cc(-c3nc([C@H](Cc4ccccc4)NC(=O)c4cc(Cl)ccc4F)[nH]c3Cl)ccc12` were above 5000 nM and 530 nM.
In turn, `Nc1nccc2cc(C(=O)N[C@@H](Cc3ccccc3)c3nc(-c4ccc5c(N)n[nH]c5c4)c(Cl)[nH]3)ccc12` returned a bioavailability in data set [1] below 2%. Besides, in data set [2], the Papp was 3.8 ×10⁻⁶ cm/s. The Vd in data set [3] is 1 L/kg. This molecule gave a half-life in data set [4] of 0.14 h. Also, the results for the Ki in data set [5] and in data set [6] were 380 nM and 19 nM, respectively. In data set [7], this molecule yielded a clearance of 49.5 mL/min/kg.
As for `Nc1nccc2c1CCC(C(=O)N[C@@H](Cc1ccccc1)c1nc(-c3ccc4c(N)n[nH]c4c3)c(Cl)[nH]1)C2` (stereo in doubt; 6), the Ki in data set [5] was found to be 1430 nM; in [6] it was 2.15 nM.
As to `Nc1n[nH]c2cc(-c3nc([C@H](Cc4ccccc4)NC(=O)NCc4c(F)ccc(Cl)c4F)[nH]c3Cl)ccc12`, the inhibitory constant (Ki) in [6] came out at 23 nM.
Still for that read-out and setting: the value for `Nc1n[nH]c2cc(-c3nc([C@H](Cc4ccccc4)NC(=O)NCc4cc(Cl)ccc4C(F)(F)F)[nH]c3Cl)ccc12` was 240 nM.
The molecule `COc1cc(F)c(C(=O)N[C@@H](Cc2ccccc2)c2nc(-c3ccc4c(N)n[nH]c4c3)c(Cl)[nH]2)c(F)c1` displayed a bioavailability in data set [1] of 49%. In [2], the Papp was found to be 23.4 ×10⁻⁶ cm/s. The Vd in data set [3] turned out to be 1.3 L/kg. Further, the half-life in data set [4] is 1.2 h. The Ki was above 6000 nM in data set [5] and 65 nM in data set [6]. This molecule yielded a clearance in [7] of 15.2 mL/min/kg.
In the case of `Nc1n[nH]c2cc(-c3nc([C@H](Cc4ccccc4)NC(=O)NCc4cc(Cl)ccc4-n4cccn4)[nH]c3Cl)ccc12`, in data set [8], the half-life was below 1 min. For the same molecule, in [6], the Ki came out at 450 nM.
As for `Nc1n[nH]c2cc(C(=O)N[C@@H](Cc3ccccc3)c3nc(-c4ccc5c(N)n[nH]c5c4)c(Cl)[nH]3)ccc12`, the inhibition constant Ki worked out at 1400 nM in [5] and 58 nM in data set [6].
On to `NCc1ccc(C(=O)N[C@@H](Cc2ccccc2)c2nc(-c3ccc4c(N)n[nH]c4c3)c(Cl)[nH]2)cc1`, for which the Ki in [5] turned out to be 59 nM; in [6], 1.16 nM.
With `Nc1n[nH]c2cc(-c3nc([C@H](Cc4ccccc4)NC(=O)NCc4cc(Cl)ccc4-n4cncn4)[nH]c3Cl)ccc12`, in data set [8], the half-life was below 1 min. Also, the affinity in data set [6] corresponds to a Ki of 46 nM. The Activity in [9] was found to be 34 µM.
Molecule `Nc1nccc2c1CCC(C(=O)N[C@@H](Cc1ccccc1)c1nc(-c3ccc4c(N)n[nH]c4c3)c(Cl)[nH]1)C2` (single isomer, unassigned; diastereomer A) displayed a bioavailability in [1] below 2%. Further, the Papp in data set [2] is 0.15 ×10⁻⁶ cm/s. Besides, in data set [3], the Vd was 2.8 L/kg. Further, the half-life in [4] is 2.3 h. Besides, the values for the Ki in [5] and in [6] were 2800 nM and 2.6 nM, respectively. Further, the clearance in data set [7] stood at 34.8 mL/min/kg.
Turning to `COC(=O)Nc1ccc(-c2nc([C@H](Cc3ccccc3)NC(=O)NCc3cc(Cl)ccc3-n3cnnn3)[nH]c2Cl)cc1`, the Vd in data set [3] amounted to 2.8 L/kg. In addition, the figures for the half-life in data set [4] and in [8] were 2.8 h and below 1 min, respectively. In addition, the Ki in [6] was 3.4 nM. Besides, the Activity in data set [9] was determined as 5.6 µM. Besides, the clearance in data set [7] came out at 34.5 mL/min/kg.
On to `COc1ccc(C(=O)N[C@@H](Cc2ccccc2)c2nc(-c3ccc4c(N)n[nH]c4c3)c(Cl)[nH]2)c(F)c1`, for which the Ki in data set [5] is above 6000 nM; in [6] it was 280 nM.
`NC(=O)c1ccc(C(=O)N[C@@H](Cc2ccccc2)c2nc(-c3ccc4c(N)n[nH]c4c3)c(Cl)[nH]2)cc1` returned a bioavailability in data set [1] of 26%. For the same molecule, the Vd in data set [3] is 1.5 L/kg. This molecule also showed a half-life in data set [4] of 1.4 h. The Ki in [5] is above 5000 nM; in [6] it was 310 nM. The clearance in data set [7] came to 12.5 mL/min/kg.
Take `Cc1ccc(C(=O)N[C@@H](Cc2ccccc2)c2nc(-c3ccc4c(N)n[nH]c4c3)c(Cl)[nH]2)cc1`: the inhibition constant Ki in data set [5] is above 5000 nM; in data set [6], 390 nM.
Taken in the same sequence, the figures for `Nc1n[nH]c2cc(-c3nc([C@H](Cc4ccccc4)NC(=O)[C@H]4CC[C@H](C(N)=O)CC4)[nH]c3Cl)ccc12` were above 5000 nM and 2900 nM.
Regarding `COC(=O)Nc1ccc(-c2nc([C@H](Cc3ccccc3)NC(=O)CCc3cc(Cl)ccc3-n3cnnn3)[nH]c2Cl)cc1`, the Vd in data set [3] was found to be 4.4 L/kg. In data set [4], the half-life was 2.6 h. Also, the affinity in data set [6] corresponds to a Ki of 1.9 nM. Also, the Activity in data set [9] stood at 5.2 µM. The molecule further gave a clearance in [7] of 38.3 mL/min/kg.
Consider `Nc1nccc2c1CCC(C(=O)N[C@@H](Cc1ccccc1)c1nc(-c3ccc4c(N)n[nH]c4c3)c(Cl)[nH]1)C2` (single isomer, unassigned; diastereomer B), for which the Ki in data set [5] stood at 360 nM; in data set [6] it was 2.5 nM.
In data set [6], `NCc1ccc(Cl)cc1CNC(=O)N[C@@H](Cc1ccccc1)c1nc(-c2ccc3c(N)n[nH]c3c2)c(Cl)[nH]1` gave a Ki of 5.8 nM. Moreover, the Activity in data set [9] amounted to 3.9 µM.
